Experimental data reported in the supplement of paper PMC9663587.

Legend:
MDAMB453 = assay: GRmax, 72 h; higher = less effect;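 note: breast cell lines in 384-well plates, nine doses across a 10^4 range, Dye Drop imaging of viable cells vs DMSO and time-zero plates, GR 0 means no net growth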
MDAMB330 = assay: GRmax, 72 h; higher = less effect;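 note: breast cell lines in 384-well plates, nine doses across a 10^4 range, Dye Drop imaging of viable cells vs DMSO and time-zero plates, GR 0 means no net growth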
PDX1258 = assay: GRmax, 72 h; higher = less effect;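 note: breast cell lines in 384-well plates, nine doses across a 10^4 range, Dye Drop imaging of viable cells vs DMSO and time-zero plates, GR 0 means no net growth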
HCC1569 = assay: GRmax, 72 h; higher = less effect;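 note: breast cell lines in 384-well plates, nine doses across a 10^4 range, Dye Drop imaging of viable cells vs DMSO and time-zero plates, GR 0 means no net growth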
HS578T = assay: GRmax, 72 h; higher = less effect
SKBR3 = assay: GRmax, 72 h; higher = less effect
HCC202 = assay: GRmax, 72 h; higher = less effect
HCC1143 = assay: GRmax, 72 h; higher = less effect
CAL851 = assay: area over the GR curve, 72 h; higher = more effect;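 note: Dye Drop or Deep Dye Drop imaging of viable cells in 384-well plates (Hoechst nuclei, LIVE/DEAD dye), nine half-log doses, GR normalized to DMSO controls and time-zero plates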
HTERT_HME1 = assay: area over the GR curve, 72 h; higher = more effect;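 note: Dye Drop or Deep Dye Drop imaging of viable cells in 384-well plates (Hoechst nuclei, LIVE/DEAD dye), nine half-log doses, GR normalized to DMSO controls and time-zero plates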
HCC1954 = assay: area over the GR curve, 72 h; higher = more effect;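 note: Dye Drop or Deep Dye Drop imaging of viable cells in 384-well plates (Hoechst nuclei, LIVE/DEAD dye), nine half-log doses, GR normalized to DMSO controls and time-zero plates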

SMILES	GRmax, 72 h (MDAMB453) [GR]	GRmax, 72 h (MDAMB330) [GR]	GRmax, 72 h (PDX1258) [GR]	GRmax, 72 h (HCC1569) [GR]	GRmax, 72 h (HS578T) [GR]	GRmax, 72 h (SKBR3) [GR]	GRmax, 72 h (HCC202) [GR]	GRmax, 72 h (HCC1143) [GR]	area over the GR curve (CAL851) [GR]	area over the GR curve (HTERT_HME1) [GR]	area over the GR curve (HCC1954) [GR]	GRmax, 72 h (MDAMB453; main component drawn) [GR]	GRmax, 72 h (PDX1258; main component drawn) [GR]	GRmax, 72 h (HS578T; main component drawn) [GR]	GRmax, 72 h (SKBR3; main component drawn) [GR]	GRmax, 72 h (HCC1143; main component drawn) [GR]	area over the GR curve (CAL851; main component drawn) [GR]	area over the GR curve (HTERT_HME1; main component drawn) [GR]	area over the GR curve (HCC1954; main component drawn) [GR]
CN1CCN(CCOc2cc(OC3CCOCC3)c3c(Nc4c(Cl)ccc5c4OCO5)ncnc3c2)CC1 [Saracatinib/AZD0530] (max 10 µM)	0.393	0.0209	0.184	0.161	0.189	0.279	-0.22	0.388	0.184	-0.0453	0.191								
N.N.[Cl][Pt][Cl] [Cisplatin] (max 10 µM)	0.133		0.318		0.0125	0.249		0.0754	0.221	0.297	0.275								
CCOc1cc2ncc(C#N)c(Nc3ccc(OCc4ccccn4)c(Cl)c3)c2cc1NC(=O)/C=C/CN(C)C [Neratinib/HKI272] (max 3.162 µM)	-0.322	-0.655	0.203	0.117	-0.161	-0.253	0.0762	0.0791	0.538	0.265	0.429								
CNC(=O)c1cccc(-c2ccc3c(N4CCOC[C@@H]4C)nc(N4CCOC[C@@H]4C)nc3n2)c1 [AZD2014] (max 10 µM)	0.134	-0.733	-0.118	0.0746	0.273	-0.0488	0.0087	0.182	0.637	0.601	0.568								
CO[C@@H](C)Cn1c(=O)n(C)c2cnc3ccc(-c4cncc(C(C)(C)O)c4)cc3c21 (max 10 µM)	-0.578	-0.799	-0.344	-0.0783	0.0776	-0.502	-0.0355	-0.203	0.771	0.676	0.822								
CCN1CCN(Cc2ccc(Nc3ncc(F)c(-c4cc(F)c5nc(C)n(C(C)C)c5c4)n3)nc2)CC1 (max 10 µM)	-0.765	-0.0152	-0.331	0.116	-0.583	0.143	0.3	-0.0787	0.228	0.428	0.458								
O=C(c1cc(Cc2n[nH]c(=O)c3ccccc23)ccc1F)N1CCN(C(=O)C2CC2)CC1 [Olaparib/AZD2281] (max 10 µM)	-0.0358	0.46	0.577	0.565	0.444	0.565	0.606	0.456	0.135	0.0258	0.0536								
O=C(CCCCCCC(=O)Nc1ccccc1)NO [Vorinostat] (max 10 µM)	-0.608	-0.872	-0.0232	-0.294	-0.169	-0.632	0.104	-0.253	0.201	0.153	0.234								
Cc1nc(Nc2ncc(C(=O)Nc3c(C)cccc3Cl)s2)cc(N2CCN(CCO)CC2)n1 [Dasatinib] (max 10 µM)	0.549	0.556	-0.134	-0.059	-0.244	0.081	-0.197	0.257	0.57	0.415	0.189								
Nc1cc(C(F)(F)F)c(-c2cc(N3CCOCC3)nc(N3CCOCC3)n2)cn1 [Buparlisib/NVP-BKM120] (max 10 µM)	-0.607	-0.858	-0.392	-0.163	-0.343	-0.373	-0.0463	-0.436	0.442	0.243	0.39								
CC(C)Nc1cc(-c2c[nH]c(C(=O)N[C@H](CO)c3cccc(Cl)c3)c2)c(Cl)cn1 [BVD523] (max 10 µM)	0.387	0.356	0.163	0.568	0.259	0.34	0.57	0.0829	0.2	0.443	0.242								
CC[C@@H]1C(=O)N(C)c2cnc(Nc3ccc(C(=O)N[C@H]4CC[C@H](N5CCN(CC6CC6)CC5)CC4)cc3OC)nc2N1C(C)C [Volasertib/BI6727] (max 1 µM)	-0.201	-0.261	-0.232	0.0147	-0.312	-0.349	0.224	-0.345	0.717	0.415	0.611								
CNCc1ccc(-c2[nH]c3cc(F)cc4c3c2CCNC4=O)cc1 [Rucaparib] (max 10 µM)	0.18	0.423	0.564	0.75	0.683	0.757	0.523	0.785	0.203	0.121	0.059								
CC(C)NC[C@@H](C(=O)N1CCN(c2ncnc3c2[C@H](C)C[C@H]3O)CC1)c1ccc(Cl)cc1 [Ipatasertib/GDC0068] (max 10 µM)	-0.155	-0.657	0.399	0.234	0.442	0.356	0.306	0.751	0.166	0.0249	0.214								
Nc1ccc(-c2ccc3ncc4ccc(=O)n(-c5cccc(C(F)(F)F)c5)c4c3c2)cn1 [Torin2] (max 1 µM)	-0.814	-0.84	-0.207	-0.0827	-0.217	-0.342	0.0177	-0.153	0.54	0.339	0.55								
COc1cc([C@@H]2c3cc4c(cc3[C@@H](O[C@@H]3O[C@@H]5CO[C@@H](C)O[C@H]5[C@H](O)[C@H]3O)[C@H]3COC(=O)[C@H]23)OCO4)cc(OC)c1O [Etoposide] (max 10 µM)	-0.0601		-0.181		-0.136	-0.317		-0.166	0.406	0.542	0.501								
Cc1c(N)nc([C@H](CC(N)=O)NC[C@H](N)C(N)=O)nc1C(=O)N[C@H](C(=O)N[C@H](C)[C@@H](O)[C@H](C)C(=O)N[C@H](C(=O)NCCc1nc(-c2nc(C(=O)NCCC[S+](C)C)cs2)cs1)[C@@H](C)O)[C@@H](OC1OC(CO)C(O)C(O)C1OC1OC(CO)C(O)C(OC(N)=O)C1O)c1cnc[nH]1 (stereo partly drawn) [Bleomycin] (max 10 µM)												0.0154	0.0721	-0.197	0.187	-0.208	0.385	0.48	0.617
